Laboratory results: ChEMBL document CHEMBL1127152, “Design and synthesis of achiral 5-lipoxygenase inhibitors employing the cyclobutyl group” (Bioorg Med Chem Lett, 1993)

Target: T1, Polyunsaturated fatty acid 5-lipoxygenase (Homo sapiens, UniProt P09917)
T1 sequence (P09917 whole entry): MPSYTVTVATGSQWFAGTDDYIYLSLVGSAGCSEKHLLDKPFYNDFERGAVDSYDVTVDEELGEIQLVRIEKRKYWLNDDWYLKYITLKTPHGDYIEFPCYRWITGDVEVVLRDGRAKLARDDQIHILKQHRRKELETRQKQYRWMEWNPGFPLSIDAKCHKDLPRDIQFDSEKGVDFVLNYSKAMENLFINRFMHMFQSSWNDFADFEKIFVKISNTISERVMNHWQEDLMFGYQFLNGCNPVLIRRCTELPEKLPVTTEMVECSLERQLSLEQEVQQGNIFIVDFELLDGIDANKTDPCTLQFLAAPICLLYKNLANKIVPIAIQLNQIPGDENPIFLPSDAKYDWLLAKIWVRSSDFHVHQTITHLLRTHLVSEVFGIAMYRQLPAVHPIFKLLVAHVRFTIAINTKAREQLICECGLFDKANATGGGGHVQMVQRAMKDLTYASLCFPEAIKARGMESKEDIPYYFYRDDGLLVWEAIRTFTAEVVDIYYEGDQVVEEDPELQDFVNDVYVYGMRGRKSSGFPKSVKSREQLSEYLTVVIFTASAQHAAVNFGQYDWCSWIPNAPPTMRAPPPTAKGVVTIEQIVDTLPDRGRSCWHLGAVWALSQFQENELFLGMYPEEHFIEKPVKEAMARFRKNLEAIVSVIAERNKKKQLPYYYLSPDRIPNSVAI
Experiment: The compound was tested in vitro for inhibition against 5-lipoxygenase in intact human neutrophils

Row | IC50 [nM] | SMILES
1 | 80 | CC(/C=C/c1cccc(Oc2ccc(F)cc2)c1)N(O)C(N)=O (stereo not drawn)
2 | 170 | NC(=O)N(O)[C@H]1C[C@@H](c2cccc(Oc3ccc(F)cc3)c2)C1
3 | 380 | NC(=O)N(O)[C@H]1C[C@H](c2cc3ccccc3s2)C1
